According to patent US9012412B2, “Dual SGLT1/SGLT2 inhibitors” (Janssen Pharmaceutica NV, priority 2013, dated 2015):

What was measured:
human SGLT1 = biological target: T1, human SGLT1 (Homo sapiens, UniProt P13866); test: Sodium-dependent 14C-methyl-α-D-glucopyranoside uptake in CHO-K1 cells stably expressing human SGLT1; format: cell-based; details: for IC50: 14C-methyl-α-D-glucopyranoside uptake; for inhibition at 3 µM: compound at 3 μM; for inhibition at 0.1 µM: compound at 0.1 μM
T1 construct: expressed in transfected cells
T1 sequence (P13866 1-664): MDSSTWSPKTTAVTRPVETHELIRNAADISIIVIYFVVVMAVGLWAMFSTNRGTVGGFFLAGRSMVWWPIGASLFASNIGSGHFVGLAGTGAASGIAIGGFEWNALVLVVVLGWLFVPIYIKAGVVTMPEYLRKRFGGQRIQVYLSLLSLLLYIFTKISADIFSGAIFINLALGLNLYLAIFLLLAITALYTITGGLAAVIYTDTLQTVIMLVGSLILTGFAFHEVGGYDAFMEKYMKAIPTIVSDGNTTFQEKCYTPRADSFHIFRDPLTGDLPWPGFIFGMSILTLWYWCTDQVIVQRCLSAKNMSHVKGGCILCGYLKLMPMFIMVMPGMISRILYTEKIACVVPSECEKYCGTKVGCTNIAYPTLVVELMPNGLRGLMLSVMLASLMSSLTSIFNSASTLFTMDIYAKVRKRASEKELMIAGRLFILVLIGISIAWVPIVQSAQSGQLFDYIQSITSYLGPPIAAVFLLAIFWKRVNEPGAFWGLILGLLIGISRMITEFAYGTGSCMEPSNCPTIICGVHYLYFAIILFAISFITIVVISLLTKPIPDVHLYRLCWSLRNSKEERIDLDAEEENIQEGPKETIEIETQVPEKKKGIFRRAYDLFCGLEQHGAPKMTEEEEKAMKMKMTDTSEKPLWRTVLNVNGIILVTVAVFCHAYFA
Method: (§1) SGLT1 and SGLT2 were cloned in form of cDNA from human small intestine (Genbank M24847), and from human kidney (Genbank M95549), respectively. Subsequently, each full cDNA was subcloned into pcDNA with each construct's integrity verified through follow-on sequencing. To generate CHO-K1 cells that stably express human SGLT1 or human SGLT2 CHO-K1 cells were transfected using DMRIE-C reagent (Life Technologies, Gaithersburg, Md.). Transfected cells were then selected in the presence of 500 μg/ml of the antibiotic G418 (Gibco-BRL, Grand Island, N.Y.). Individual clones were then characterized using the following cell-based assay for sodium-dependent glucose transport.
(§2) First, cell lines stably expressing human SGLT1 or SGLT2 were seeded at a density of 65,000 cells per well per 200 μl cell culture medium with 10 mM of NaButyrate (Aldrich Catalog No. 30341-0) in a 96-well flat bottom plate (COSTAR, Catalog No. 3903). For human SGLT1 or SGLT2 expressing CHO-K1 cells the culture medium comprised Ham's F-12 (Invitrogen Catalog No. 31765), Fetal Bovine Serum (Invitrogen Catalog No. 16000), G418 (Geneticin, Cellgro Catalog No. 30234-CI), Phlorizidin (Sigma Catalog No. P3449), DPBS (Cellgro Catalog No. 21030-CV), ^14C-methyl-α-D-glucopyranoside (Amersham Catalog No. CFB 76), and Methyl-α-D-glucopyranoside (Sigma Catalog No. M-9376).
(§3) The cells were allowed to incubate for 24 hours. Subsequently, the medium was aspirated from the plates and the cells were washed one time with 150 μl assay buffer and incubate 15 min with another 150 μl assay buffer which comprised 50 mM HEPES pH 7.4, 20 mM Tris Base, 5 mM KCl, 1 mM MgCl2, 1 mM CaCl2, and 137 mM NaCl. After removing the wash buffer, 40 μl assay buffer and 10 μl compound solution was added to each well, which was again allowed to incubate for 10 min.
(§4) Following the 10 min incubation, 10 μl of serial diluted Methyl-α-D-glucopyranoside (Sigma Catalog No. M-9376) containing 0.07 μCi ^14C-methyl-α-D-glucopyranoside (Amersham Catalog No. CFB 76) was added to the appropriate well and allowed to incubate for another 2 hours. ^14C-methyl-α-D-glucopyranoside (Sigma Catalog No. M-9376, St. Louis, Mo.) is a non-metabolizable glucose analog specific for sodium-dependent glucose transporters as previously described by H. Peng and J. E. Lever in “Post-transcriptional regulation of Na+/glucose cotransporter (SGLT1) gene expression in LLC-PK1 cells,” J. Biol. Chem. 270, 20536-42 (1995).
(§5) Next, the plates were twice washed with 150 μl of ice-cold DPBS (Cellgro Catalog No. 21030) that was then completely removed from the plates before adding 50 μl of MicroScint™-20 (Packard Catalog No. 6013621) to each well for a 20 min or longer incubation time.
(§6) Sodium-dependent ^14C-methyl-α-D-glucopyranoside uptake was quantified by measuring radioactivity. Plates were counted in a TopCount (Packard, Meriden, Conn.). Results are reported as the %-inhibition or IC50 value from a representative experiment. Variability for the functional assay was typically within 20%.

human SGLT2 = biological target: T2, human SGLT2 (Homo sapiens, UniProt P31639); test: Sodium-dependent 14C-methyl-α-D-glucopyranoside uptake in CHO-K1 cells stably expressing human SGLT2; format: cell-based; details: for IC50: 14C-methyl-α-D-glucopyranoside uptake; for inhibition at 0.1 µM: compound at 0.1 μM; for inhibition at 3 µM: compound at 3 μM
T2 construct: expressed in transfected cells
T2 sequence (P31639 1-672): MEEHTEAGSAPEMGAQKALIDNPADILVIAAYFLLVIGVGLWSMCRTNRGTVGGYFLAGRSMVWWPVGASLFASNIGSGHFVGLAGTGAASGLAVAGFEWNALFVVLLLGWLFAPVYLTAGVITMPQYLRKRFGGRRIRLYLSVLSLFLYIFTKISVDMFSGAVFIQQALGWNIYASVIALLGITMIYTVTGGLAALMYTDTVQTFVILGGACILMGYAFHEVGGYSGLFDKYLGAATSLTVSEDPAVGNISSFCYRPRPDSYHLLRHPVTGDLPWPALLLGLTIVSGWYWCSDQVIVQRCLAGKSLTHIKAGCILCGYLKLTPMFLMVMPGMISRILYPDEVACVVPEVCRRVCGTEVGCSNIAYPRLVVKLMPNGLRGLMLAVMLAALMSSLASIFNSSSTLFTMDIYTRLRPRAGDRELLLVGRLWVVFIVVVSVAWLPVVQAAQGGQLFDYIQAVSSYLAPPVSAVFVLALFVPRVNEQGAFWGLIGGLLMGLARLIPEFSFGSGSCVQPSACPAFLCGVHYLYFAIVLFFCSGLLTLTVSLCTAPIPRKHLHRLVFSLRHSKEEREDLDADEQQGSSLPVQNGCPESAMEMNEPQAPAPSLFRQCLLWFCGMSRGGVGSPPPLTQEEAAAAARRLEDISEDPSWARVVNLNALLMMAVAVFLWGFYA
Method: as §1, §2, §3, §4, §5, §6

SMILES | inhibition at 0.1 µM (human SGLT2) [%] | inhibition at 0.1 µM (human SGLT1) [%] | other results
Cc1cc(O)c([C@@H]2O[C@H](CO)C[C@H](O)[C@H]2O)cc1C1(c2cc3ccccc3s2)CC1 [Cpd 10, (2S,3R,4S,6S)-2-(5-(1-(benzo[b]thiophen-2-yl)cyclopropyl)-2-hydroxy-4-methylphenyl)-6-(hydroxymethyl)tetrahydro-2H-pyran-3,4-diol] |  |  | IC50 (human SGLT1): > 3000 nM; IC50 (human SGLT2): 223 nM
OC[C@@H]1C[C@H](O)[C@@H](O)[C@H](c2cc(Cc3cc4ccccc4s3)c(C(F)(F)F)cc2O)O1 [Cpd 16, (2S,3R,4S,6S)-2-(5-(benzo[b]thiophen-2-ylmethyl)-2-hydroxy-4-(trifluoromethyl)phenyl)-6-(hydroxymethyl)tetrahydro-2H-pyran-3,4-diol] | 77 |  | IC50 (human SGLT1): 240 nM
COc1cc(O)c([C@@H]2O[C@H](CO)C[C@H](O)[C@H]2O)cc1C(=O)c1cc2ccccc2s1 [Cpd 5, benzo[b]thiophen-2-yl(5-((2S,3R,4S,6S)-3,4-dihydroxy-6-(hydroxymethyl)tetrahydro-2H-pyran-2-yl)-4-hydroxy-2-methoxyphenyl)methanone] |  |  | inhibition at 3 µM (human SGLT1): 0%; inhibition at 3 µM (human SGLT2): 0%
Cc1c(Cc2cc3ccccc3s2)cc([C@@H]2O[C@H](CO)C[C@H](O)[C@H]2O)c(O)c1C [Cpd 22, (2S,3R,4S,6S)-2-(5-(benzo[b]thiophen-2-ylmethyl)-2-hydroxy-3,4-dimethylphenyl)-6-(hydroxymethyl)tetrahydro-2H-pyran-3,4-diol] | 67 | 39 | 
CCc1cc(O)c([C@@H]2O[C@H](CO)C[C@H](O)[C@H]2O)cc1Cc1cc2ccccc2s1 [Cpd 11, (2S,3R,4S,6S)-2-(5-(benzo[b]thiophen-2-ylmethyl)-4-ethyl-2-hydroxyphenyl)-6-(hydroxymethyl)tetrahydro-2H-pyran-3,4-diol] |  |  | inhibition at 3 µM (human SGLT1): 95%; IC50 (human SGLT2): 61 nM
OC[C@@H]1C[C@H](O)[C@@H](O)[C@H](c2cc(Cc3cc4ccccc4s3)c(Cl)cc2O)O1 [Cpd 3, (2S,3R,4S,6S)-2-(5-(benzo[b]thiophen-2-ylmethyl)-4-chloro-2-hydroxyphenyl)-6-(hydroxymethyl)tetrahydro-2H-pyran-3,4-diol] |  |  | IC50 (human SGLT1): 115 nM; IC50 (human SGLT2): 22 nM
OC[C@@H]1C[C@H](O)[C@@H](O)[C@H](c2cc(Cc3cc4ccccc4s3)c(F)cc2O)O1 [Cpd 4, (2S,3R,4S,6S)-2-(5-(benzo[b]thiophen-2-ylmethyl)-4-fluoro-2-hydroxyphenyl)-6-(hydroxymethyl)-tetrahydro-2H-pyran-3,4-diol] |  |  | IC50 (human SGLT1): 893 nM; IC50 (human SGLT2): 128 nM
C=CCOc1c([C@@H]2O[C@H](CO)C[C@H](O)[C@H]2O)cc(Cc2cc3ccccc3s2)c(C)c1C [Cpd 24, (2S,3R,4S,6S)-2-(2-(allyloxy)-5-(benzo[b]thiophen-2-ylmethyl)-3,4-dimethylphenyl)-6-(hydroxymethyl)tetrahydro-2H-pyran-3,4-diol] | 40 | 31 | 
COc1c([C@@H]2O[C@H](CO)C[C@H](O)[C@H]2O)cc(Cc2cc3ccccc3s2)c(C)c1C [Cpd 23, (2S,3R,4S,6S)-2-(5-(benzo[b]thiophen-2-ylmethyl)-2-methoxy-3,4-dimethylphenyl)-6-(hydroxymethyl)tetrahydro-2H-pyran-3,4-diol] | 70 | 50 | 
C=C(c1cc2ccccc2s1)c1cc([C@@H]2O[C@H](CO)C[C@H](O)[C@H]2O)c(O)cc1C [Cpd 8, (2S,3R,4S,6S)-2-(5-(1-(benzo[b]thiophen-2-yl)vinyl)-2-hydroxy-4-methylphenyl)-6-(hydroxymethyl)tetrahydro-2H-pyran-3,4-diol] |  |  | inhibition at 3 µM (human SGLT1): 41%; inhibition at 3 µM (human SGLT2): 25%
N#Cc1cc(O)c([C@@H]2O[C@H](CO)C[C@H](O)[C@H]2O)cc1Cc1cc2ccccc2s1 [Cpd 13, 2-(benzo[b]thiophen-2-ylmethyl)-4-((2S,3R,4S,6S)-3,4-dihydroxy-6-(hydroxymethyl)tetrahydro-2H-pyran-2-yl)-5-hydroxybenzonitrile] |  |  | inhibition at 3 µM (human SGLT1): 57%; inhibition at 0.3 µM (human SGLT2; compound at 0.3 μM): 73%
Cc1cc(Br)c([C@@H]2O[C@H](CO)C[C@H](O)[C@H]2O)cc1Cc1ccc(-c2ccc(F)cc2)s1 [Cpd 30, (2S,3R,4S,6S)-2-(2-bromo-5-((5-(4-fluorophenyl)thiophen-2-yl)methyl)-4-methylphenyl)-6-(hydroxymethyl)tetrahydro-2H-pyran-3,4-diol] | 73 | 44 | 
C=Cc1cc(O)c([C@@H]2O[C@H](CO)C[C@H](O)[C@H]2O)cc1Cc1cc2ccccc2s1 [Cpd 17, (2S,3R,4S,6S)-2-(5-(benzo[b]thiophen-2-ylmethyl)-2-hydroxy-4-vinylphenyl)-6-(hydroxymethyl)tetrahydro-2H-pyran-3,4-diol] | 64 | 58 | 
Cc1cc(-c2ccc[nH]2)c([C@@H]2O[C@H](CO)C[C@H](O)[C@H]2O)cc1Cc1cc2ccccc2s1 [Cpd 26, (2S,3R,4S,6S)-2-(5-(benzo[b]thiophen-2-ylmethyl)-4-methyl-2-(1H-pyrrol-2-yl)phenyl)-6-(hydroxymethyl)tetrahydro-2H-pyran-3,4-diol] | 57 | 33 | 

Further lines, with some results ahead:

inhibition at 0.1 µM (human SGLT2) [%] | inhibition at 0.1 µM (human SGLT1) [%] | SMILES | other results
69 | 33 | Cc1cc(O)c([C@@H]2O[C@H](CO)C[C@H](O)[C@H]2O)cc1Cc1cc2ccccc2o1 [Cpd 28, (2S,3R,4S,6S)-2-(5-(benzofuran-2-ylmethyl)-2-hydroxy-4-methylphenyl)-6-(hydroxymethyl)tetrahydro-2H-pyran-3,4-diol] | 
41 | 22 | Cc1cc(O)c([C@@H]2O[C@H](CO)C[C@H](O)[C@H]2O)cc1Cc1nc2ccccc2s1 [Cpd 29, (2S,3R,4S,6S)-2-(5-(benzo[d]thiazol-2-ylmethyl)-2-hydroxy-4-methylphenyl)-6-(hydroxymethyl)tetrahydro-2H-pyran-3,4-diol] | 
